Data taken from patent publication US9617267B2, “Compounds and methods for kinase modulation, and indications therefor” (Plexxikon Inc., priority 2009, dated 2017).
Like-named read-outs stand apart in the source and are kept apart here.

Assays:
[1] = biological target: B-Raf (Homo sapiens (Human), UniProt P15056); experiment: B-Raf kinase activity biochemical assay (AlphaScreen, biotin-MEK1 phosphorylation); settings: B-Raf
How it was run: (§1)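 Biotin-MEK1 phosphorylation measured after 45 min kinase reaction at RT with 100 μM ATP final; compounds tested at 8 points from 0.1 mM DMSO stock.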

[2] = system: B-Raf; experiment: as above; settings: for Biochemical activity ratio B/V600E: ratio of IC50 B-Raf / B-Raf V600E; for Biochemical activity ratio B/C: ratio of IC50 B-Raf / c-Raf-1
How it was run: as §1

[3] = biological target: B-Raf V600E (Homo sapiens (Human), UniProt P15056, V600E); experiment: B-Raf V600E kinase activity biochemical assay (AlphaScreen, biotin-MEK1 phosphorylation); settings: for IC50: B-Raf V600E; for Biochemical activity ratio V600E/C: ratio of IC50 B-Raf V600E / c-Raf-1
B-Raf V600E, sequence (P15056 whole entry V600E): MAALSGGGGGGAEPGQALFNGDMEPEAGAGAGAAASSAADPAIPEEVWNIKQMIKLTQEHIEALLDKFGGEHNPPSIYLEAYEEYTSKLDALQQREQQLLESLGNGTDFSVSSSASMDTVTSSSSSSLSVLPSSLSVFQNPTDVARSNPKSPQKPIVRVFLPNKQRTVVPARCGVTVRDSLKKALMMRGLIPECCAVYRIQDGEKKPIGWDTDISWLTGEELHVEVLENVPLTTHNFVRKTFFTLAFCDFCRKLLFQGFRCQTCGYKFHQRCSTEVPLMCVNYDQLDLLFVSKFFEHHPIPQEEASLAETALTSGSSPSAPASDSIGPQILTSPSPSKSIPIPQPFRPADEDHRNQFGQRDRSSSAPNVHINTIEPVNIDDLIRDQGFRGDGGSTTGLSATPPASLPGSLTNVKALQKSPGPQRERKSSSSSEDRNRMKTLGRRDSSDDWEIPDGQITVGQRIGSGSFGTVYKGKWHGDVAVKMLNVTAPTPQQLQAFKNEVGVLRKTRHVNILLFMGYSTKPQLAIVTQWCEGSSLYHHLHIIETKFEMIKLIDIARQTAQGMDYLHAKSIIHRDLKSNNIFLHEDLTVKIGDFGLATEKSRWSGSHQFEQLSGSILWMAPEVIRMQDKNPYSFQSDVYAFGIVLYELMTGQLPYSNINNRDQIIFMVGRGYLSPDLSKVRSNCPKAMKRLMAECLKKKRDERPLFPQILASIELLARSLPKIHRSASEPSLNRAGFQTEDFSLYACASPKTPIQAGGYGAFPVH
How it was run: as §1

[4] = biological target: c-Raf-1 (Homo sapiens, UniProt P04049); experiment: c-Raf-1 kinase activity biochemical assay (AlphaScreen, biotin-MEK1 phosphorylation)
c-Raf-1, sequence (P04049 whole entry, looked up): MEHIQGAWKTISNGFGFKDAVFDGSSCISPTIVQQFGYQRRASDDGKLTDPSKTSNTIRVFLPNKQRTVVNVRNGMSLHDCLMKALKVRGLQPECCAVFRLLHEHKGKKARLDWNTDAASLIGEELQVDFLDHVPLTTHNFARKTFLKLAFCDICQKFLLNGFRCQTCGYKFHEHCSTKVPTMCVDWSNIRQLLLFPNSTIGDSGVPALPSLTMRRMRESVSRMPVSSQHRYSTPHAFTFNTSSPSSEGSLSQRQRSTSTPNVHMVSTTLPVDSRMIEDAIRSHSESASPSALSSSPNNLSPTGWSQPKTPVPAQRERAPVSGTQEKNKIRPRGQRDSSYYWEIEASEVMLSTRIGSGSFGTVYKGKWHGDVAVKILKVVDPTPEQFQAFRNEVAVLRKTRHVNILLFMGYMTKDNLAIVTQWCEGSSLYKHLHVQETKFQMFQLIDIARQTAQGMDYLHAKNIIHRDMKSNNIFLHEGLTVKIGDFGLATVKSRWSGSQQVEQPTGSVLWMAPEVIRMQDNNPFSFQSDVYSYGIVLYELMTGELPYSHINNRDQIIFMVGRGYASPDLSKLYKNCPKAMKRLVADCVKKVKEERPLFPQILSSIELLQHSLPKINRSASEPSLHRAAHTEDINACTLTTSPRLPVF
How it was run: as §1

[5] = Relative solubility by turbidity threshold concentration in aqueous buffers (pH 1.5, 4.5, 6.8, 7.4); format: physicochemical; settings: for turbidity threshold (L, M, H) 1.4: pH 1.4 [sic] (method: SGF pH 1.5); for turbidity threshold (L, M, H) 4.5: pH 4.5 (SIF); for turbidity threshold (L, M, H) 6.8: pH 6.8 (SIF); for turbidity threshold (L, M, H) 7.4: pH 7.4 (HEPES)
How it was run: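 Solubility class (high >250 μM, moderate 31.3–250 μM, low <31.3 μM) comes from the concentration where absorbance reaches a 0.01 threshold, averaged across 490/535/650 nm. Samples were compound dilutions from DMSO stock, 1 μL into 99 μL buffer at pH 1.5, 4.5, 6.8 or 7.4.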

[6] = biological target: CYP1A2 (Homo sapiens (Human), UniProt P05177); experiment: CYP enzyme inhibition, fluorescent substrate (CEC)
CYP1A2, sequence (P05177 whole entry): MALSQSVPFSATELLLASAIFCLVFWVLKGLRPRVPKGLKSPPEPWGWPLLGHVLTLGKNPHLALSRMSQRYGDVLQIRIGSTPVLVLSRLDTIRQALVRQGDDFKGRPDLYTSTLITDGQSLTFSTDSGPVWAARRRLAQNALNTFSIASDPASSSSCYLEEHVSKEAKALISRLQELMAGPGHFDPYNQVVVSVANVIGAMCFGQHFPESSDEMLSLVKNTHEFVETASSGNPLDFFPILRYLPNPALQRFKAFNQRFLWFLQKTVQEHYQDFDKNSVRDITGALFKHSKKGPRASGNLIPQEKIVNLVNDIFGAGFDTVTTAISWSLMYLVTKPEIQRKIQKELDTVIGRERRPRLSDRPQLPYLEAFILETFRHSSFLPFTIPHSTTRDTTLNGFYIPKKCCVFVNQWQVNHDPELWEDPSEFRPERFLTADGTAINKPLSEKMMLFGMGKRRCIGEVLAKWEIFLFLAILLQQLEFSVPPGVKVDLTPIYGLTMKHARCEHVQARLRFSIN
Description: (§2) CYP (Cytochrome P450) enzymes are the major drug metabolizing enzymes present in the liver. The inhibition of CYP enzyme activity (IC50) for each of CYP1A2, CYP2C19, CYP2C9, CYP2D6, CYP3A4(BFC) and CYP3A4(BQ) is determined for compounds, where inhibition of metabolism of a known substrate leads to a decrease in the fluorescence of the metabolized product. The fluorescence of the product is monitored as a function of compound concentration.
(§3) Compounds are dissolved in dimethyl sulfoxide to a concentration of 100 mM. These are diluted 1 μL into 82 μL of acetonitrile. An 11 μL aliquot of this solution is then added to 204 μL of cofactor mix (1.3% NADPH Regeneration system Solution A, 1.04% NADPH Regeneration system Solution B from BD Biosciences, 5% acetonitrile and 0.05% dimethyl sulfoxide). These are then serially diluted 1:1 (160 μL to 160 μL co-factor mix) for a total of 10 points. A 10 μL aliquot of this final mixture is dispensed into 384 well assay plates and incubated for 10 minutes at 37° C. Enzyme and substrate mix (10 μL; 0.5 pmol CYP1A2/5 μM CEC; 1.0 pmol CYP2C9/75 μM MFC; 0.5 pmol CYP2C19/25 μM CEC; 1.5 pmol CYP2D6/1.5 μM AMMC; 1.0 pmol CYP3A4/50 μM BFC; or 1.0 pmol CYP3A4/40 μM BQ) is added to these assay plates. Assay plates are incubated at 37° C. (CYP1A2-15 min; CYP2C9-45 min; CYP2C19, 2D6 and 3A4-30 min) and read in a Tecan Safire 2 plate reader (CYP1A2, 2C19 and 3A4 409 ex/460 em; CYP2C9 and 2D6 409 ex/530 em). The signal versus compound concentration is used to determine the IC50. The enzymes and substrates for this assay are obtained from BD Biosciences.

[7] = biological target: CYP2C19 (Homo sapiens (Human), UniProt P33261); experiment: CYP enzyme inhibition, fluorescent substrate (CEC)
CYP2C19, sequence (P33261 whole entry): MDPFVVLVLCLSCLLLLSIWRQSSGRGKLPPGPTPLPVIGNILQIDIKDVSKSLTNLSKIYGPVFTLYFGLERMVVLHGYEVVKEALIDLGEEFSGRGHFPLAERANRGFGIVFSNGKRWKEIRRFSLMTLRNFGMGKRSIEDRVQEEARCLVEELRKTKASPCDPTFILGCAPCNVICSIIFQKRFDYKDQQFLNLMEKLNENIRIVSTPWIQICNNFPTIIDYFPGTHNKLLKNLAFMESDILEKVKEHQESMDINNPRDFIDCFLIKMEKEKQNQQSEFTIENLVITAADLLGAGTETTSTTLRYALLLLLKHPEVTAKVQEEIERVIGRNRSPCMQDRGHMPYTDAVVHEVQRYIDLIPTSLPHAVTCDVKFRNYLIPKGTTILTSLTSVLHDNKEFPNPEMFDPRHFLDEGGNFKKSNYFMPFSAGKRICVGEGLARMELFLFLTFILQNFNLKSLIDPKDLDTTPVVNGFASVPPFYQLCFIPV
How it was run: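 Human CYP activity was followed by the fluorescence of the metabolized product of a known substrate, which falls as metabolism is inhibited. Compounds from 100 mM DMSO stocks were serially diluted 1:1 over 10 points in co-factor mix and preincubated 10 min at 37 °C. IC50 was fitted from signal versus concentration.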

[8] = biological target: CYP2C9 (Homo sapiens (Human), UniProt P11712); experiment: CYP enzyme inhibition, fluorescent substrate (MFC)
CYP2C9, sequence (P11712 whole entry): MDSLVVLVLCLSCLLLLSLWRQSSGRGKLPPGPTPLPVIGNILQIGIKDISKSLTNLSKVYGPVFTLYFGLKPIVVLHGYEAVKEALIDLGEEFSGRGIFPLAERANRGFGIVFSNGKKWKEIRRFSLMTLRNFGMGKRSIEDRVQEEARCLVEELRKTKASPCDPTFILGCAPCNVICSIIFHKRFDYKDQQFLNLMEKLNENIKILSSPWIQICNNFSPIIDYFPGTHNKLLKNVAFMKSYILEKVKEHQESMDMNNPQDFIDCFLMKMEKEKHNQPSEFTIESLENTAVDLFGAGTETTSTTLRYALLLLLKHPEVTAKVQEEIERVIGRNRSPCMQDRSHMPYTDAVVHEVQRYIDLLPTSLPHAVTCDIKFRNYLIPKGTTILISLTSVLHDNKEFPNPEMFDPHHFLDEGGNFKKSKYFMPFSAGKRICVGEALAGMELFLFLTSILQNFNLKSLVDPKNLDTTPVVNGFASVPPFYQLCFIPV
Description: as §2
(§4) Compounds are dissolved in dimethyl sulfoxide to a concentration of 100 mM. These are diluted 1 μL into 82 μL of acetonitrile. […] These are then serially diluted 1:1 (160 μL to 160 μL co-factor mix) for a total of 10 points. A 10 μL aliquot of this final mixture is dispensed into 384 well assay plates and incubated for 10 minutes at 37° C. […] Assay plates are incubated at 37° C. […] The signal versus compound concentration is used to determine the IC50. The enzymes and substrates for this assay are obtained from BD Biosciences.

[9] = biological target: CYP2D6 (Homo sapiens (Human), UniProt P10635); experiment: CYP enzyme inhibition, fluorescent substrate (AMMC); format: in vitro ADME; settings: read-out: Cyp IC50 2D6
CYP2D6, sequence (P10635 whole entry): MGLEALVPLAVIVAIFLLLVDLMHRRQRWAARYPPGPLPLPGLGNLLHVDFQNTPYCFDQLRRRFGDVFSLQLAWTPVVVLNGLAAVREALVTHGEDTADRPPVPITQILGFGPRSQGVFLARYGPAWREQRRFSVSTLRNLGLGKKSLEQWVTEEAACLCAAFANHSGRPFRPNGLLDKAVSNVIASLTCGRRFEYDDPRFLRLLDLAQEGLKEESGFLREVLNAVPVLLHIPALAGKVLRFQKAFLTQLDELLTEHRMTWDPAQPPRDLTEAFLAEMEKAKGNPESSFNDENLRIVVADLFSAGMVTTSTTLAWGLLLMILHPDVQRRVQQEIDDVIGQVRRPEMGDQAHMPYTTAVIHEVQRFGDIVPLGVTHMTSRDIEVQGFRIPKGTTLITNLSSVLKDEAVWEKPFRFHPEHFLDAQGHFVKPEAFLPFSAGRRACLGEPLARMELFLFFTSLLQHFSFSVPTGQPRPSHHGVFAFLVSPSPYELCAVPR
Description: as §2, §3

[10] = biological target: CYP3A4(BFC) (Homo sapiens (Human), UniProt P08684); experiment: CYP enzyme inhibition, fluorescent substrate BFC; settings: read-out: Cyp IC50 3A4(BFC); CYP3A4, substrate BFC
CYP3A4(BFC), sequence (P08684 whole entry): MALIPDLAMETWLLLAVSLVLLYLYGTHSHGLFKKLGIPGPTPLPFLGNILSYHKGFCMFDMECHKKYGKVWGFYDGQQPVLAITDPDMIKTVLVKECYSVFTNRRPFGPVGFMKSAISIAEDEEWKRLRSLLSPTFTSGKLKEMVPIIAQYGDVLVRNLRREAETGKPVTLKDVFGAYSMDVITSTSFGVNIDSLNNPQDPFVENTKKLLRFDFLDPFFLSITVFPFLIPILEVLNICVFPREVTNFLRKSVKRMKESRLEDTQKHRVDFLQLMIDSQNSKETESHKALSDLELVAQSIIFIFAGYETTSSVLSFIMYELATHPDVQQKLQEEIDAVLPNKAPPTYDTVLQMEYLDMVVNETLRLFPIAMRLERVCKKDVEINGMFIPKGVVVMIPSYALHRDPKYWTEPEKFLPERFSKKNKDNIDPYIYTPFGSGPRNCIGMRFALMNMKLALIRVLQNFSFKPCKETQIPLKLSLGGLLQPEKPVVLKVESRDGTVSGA
Description: as §2, §4

[11] = read-out: Cyp IC50 2C19, CYP2C19, substrate CEC
[12] = read-out: Cyp IC50 1A2, CYP1A2, substrate CEC
[13] = read-out: Cyp IC50 2C9, CYP2C9, substrate MFC

B-Raf (Homo sapiens (Human), UniProt P15056), sequence (P15056 whole entry): as the sequence (P15056 whole entry V600E) above, with E600V counted along it

Row | SMILES | IC50 [1] [µM] | Biochemical activity ratio B/V600E [2] | Biochemical activity ratio B/C [2] | IC50 [3] [µM] | Biochemical activity ratio V600E/C [3] | IC50 [4] [µM] | turbidity threshold (L, M, H) 1.4 [5] | turbidity threshold (L, M, H) 4.5 [5] | turbidity threshold (L, M, H) 6.8 [5] | turbidity threshold (L, M, H) 7.4 [5] | IC50 ([6]; human, 15 min) [µM] | IC50 [7, 11] [µM] | IC50 [8] [µM] | IC50 [9] [µM] | IC50 [10] [µM] | IC50 [6, 12] [µM] | IC50 [7] [µM] | IC50 [8, 13] [µM]
1 | CC(C)COc1ncnc2[nH]cc(C(=O)c3c(F)ccc(NS(=O)(=O)c4ccc(C(F)(F)F)cc4)c3F)c12 [P-1028, N-[2,4-Difluoro-3-(4-isobutoxy-7H-pyrrolo[2,3-d]pyrimidine-5-carbonyl)-phenyl]-4-trifluoromethyl-benzenesulfonamide] | > 0.1 | 0.1-10 | >10 | > 0.1 | >10 | < 0.1 | M (moderate solubility if the threshold concentration is 31.3 μM to 250 μM) | L (low solubility if the threshold concentration is <31.3 μM) | L (low solubility if the threshold concentration is <31.3 μM) | M (moderate solubility if the threshold concentration is 31.3 μM to 250 μM) | > 10 | > 10 | 5 to 10 | > 10 | > 10 | – | – | –
2 | CC(C)c1ncnc2[nH]cc(C(=O)c3c(F)ccc(NS(=O)(=O)c4ccc(C(F)(F)F)cc4)c3F)c12 [P-1029, N-[2,4-Difluoro-3-(4-isopropyl-7H-pyrrolo[2,3-d]pyrimidine-5-carbonyl)-phenyl]-4-trifluoromethyl-benzenesulfonamide] | < 0.1 | 0.1-10 | >10 | > 0.1 | >10 | < 0.1 | M (moderate solubility if the threshold concentration is 31.3 μM to 250 μM) | – | – | M (moderate solubility if the threshold concentration is 31.3 μM to 250 μM) | – | – | 5 to 10 | > 10 | > 10 | > 10 | 5 to 10 | –
3 | CCCc1ccc(S(=O)(=O)Nc2ccc(F)c(C(=O)c3c[nH]c4ncnc(O)c34)c2F)cc1 [P-1030, N-[2,4-Difluoro-3-(4-hydroxy-7H-pyrrolo[2,3-d]pyrimidine-5-carbonyl)-phenyl]-4-propyl-benzenesulfonamide] | > 0.1 | <0.1 | 0.1-10 | > 0.1 | >10 | < 0.1 | – | M (moderate solubility if the threshold concentration is 31.3 μM to 250 μM) | – | M (moderate solubility if the threshold concentration is 31.3 μM to 250 μM) | – | > 10 | – | > 10 | > 10 | > 10 | – | > 10
4 | Nc1ncnc2[nH]cc(C(=O)c3c(F)ccc(NS(=O)(=O)c4ccc(C(F)(F)F)cc4)c3F)c12 [P-1031, N-[3-(4-Amino-7H-pyrrolo[2,3-d]pyrimidine-5-carbonyl)-2,4-difluoro-phenyl]-4-trifluoromethyl-benzenesulfonamide] | > 0.1 | 0.1-10 | >10 | > 0.1 | >10 | < 0.1 | M (moderate solubility if the threshold concentration is 31.3 μM to 250 μM) | M (moderate solubility if the threshold concentration is 31.3 μM to 250 μM) | M (moderate solubility if the threshold concentration is 31.3 μM to 250 μM) | M (moderate solubility if the threshold concentration is 31.3 μM to 250 μM) | – | > 10 | – | > 10 | > 10 | > 10 | – | > 10
5 | CCCNc1ncnc2[nH]cc(C(=O)c3c(F)ccc(NS(=O)(=O)c4ccc(C(F)(F)F)cc4)c3F)c12 [P-1032, N-[2,4-Difluoro-3-(4-propylamino-7H-pyrrolo[2,3-d]pyrimidine-5-carbonyl)-phenyl]-4-trifluoromethyl-benzenesulfonamide] | < 0.1 | 0.1-10 | >10 | < 0.1 | >10 | < 0.1 | L (low solubility if the threshold concentration is <31.3 μM) | L (low solubility if the threshold concentration is <31.3 μM) | – | – | – | – | – | > 10 | > 10 | > 10 | 5 to 10 | > 10
6 | CCCS(=O)(=O)Nc1ccc(F)c(C(=O)c2c[nH]c3ncnc(Cl)c23)c1F [P-1033, Propane-1-sulfonic acid [3-(4-chloro-7H-pyrrolo[2,3-d]pyrimidine-5-carbonyl)-2,4-difluoro-phenyl]-amide] | > 0.1 | 0.1-10 | >10 | < 0.1 | 0.1-10 | < 0.1 | H (high solubility if the threshold concentration is >250 μm) | H (high solubility if the threshold concentration is >250 μm) | H (high solubility if the threshold concentration is >250 μm) | H (high solubility if the threshold concentration is >250 μm) | > 10 | > 10 | – | > 10 | > 10 | – | – | > 10
